Assay results published in patent US4676822A, “Fluid fertilizers containing thiophosphoryl triamide” (Tennessee Valley Authority, priority 1986, dated 1987).
Where “and” joins values, the source holds several entries; their conditions need not be identical. Equal values may be shown once.

Tests used:
[1] = Stability of TPTA in UAN (31-0-0) at 25° C. (HPLC); format: physicochemical; settings: for % original TPTA remaining: UAN (31-0-0)
Experimental: A sample containing 1 weight percent TPTA was prepared by dissolving 1 g of TPTA in 99 g of 31-0-0 having the composition given in Table I, supra, and an initial pH of 8.1. The sample was maintained at room temperature (25° C.) and analyzed periodically for TPTA by HPLC. The results of the kinetic study are given in Table V infra and as noted supra plotted in FIG. 4 along with the first-order rate equation (solid line in FIG. 4) which was determined by linear regression.

[2] = system: urease; assay: Urease inhibition tests with TPTA and PPDA in fluid fertilizers, banded soil system (urease-active Hastings silt loam); format: biochemical; settings: for average % urea unhydrolyzed, 3 days / % urea unhydrolyzed, 3 days: 3 days incubation at 25° C.; for average % urea unhydrolyzed, 3 days / average % urea unhydrolyzed, 6 days: average of A and B samples; for % urea unhydrolyzed, 3 days / % urea unhydrolyzed, 6 days: single sample; for average % urea unhydrolyzed, 6 days / % urea unhydrolyzed, 6 days: 6 days incubation at 25° C.
Experimental: Samples of UAN (31-0-0), 1 g, and (36-0-0), 0.66 g containing approximately 0.38 g urea and 0.041 g of TPTA were prepared by dissolving solid TPTA in 31-0-0 and 36-0-0 of the compositions shown in Table I, supra. Identical samples containing PPDA and without either inhibitor were prepared to serve as references for purposes of data comparison.
Urease-active soil (Hastings silt loam) was moistened to a moisture content of 20 percent and preincubated at room temperature for two days. Plexiglass containers (6×6×6 cm) were one-half filled with soil and packed to a bulk density of 1.0 g/cm^3. The 31-0-0 and 36-0-0 samples containing TPTA and PPDA as well as samples containing no inhibitor were distributed evenly in a narrow band 6 cm along the soil surface. The containers were filled with soil and again packed to a bulk density of 1.0 g/cm^3. The containers were incubated at 25° C. for the desired reaction period. After incubation the soil from each container was thoroughly mixed, and a 10-g sample was extracted with 100 mL of 2M KCl containing 5 ppm phenylmercuric acetate to prevent urea hydrolysis during handling [L. A. Douglass and J. M. Bremner, Soil Sci. Soc. Am. Proc. 34, 859-862 (1970)]. The urea in the extracts was determined colorimetrically as a measure of unhydrolyzed urea. The results of three-day and six-day incubation tests are illustrated in Table II infra; and as noted supra, plotted in FIG. 1.

Compound: NP(N)(N)=S [TPTA, thiophosphoryl triamide]
- reaction half-life in the 31-0-0 solution ([1]; 1 wt % TPTA, initial pH 8.1, first-order): 93 days
- % original TPTA remaining ([1]; time 0.00 days): 100.00%
- % original TPTA remaining ([1]; time 1.22 days): 100.00%
- % original TPTA remaining ([1]; time 5.22 days): 97.60%
- % original TPTA remaining ([1]; time 7.13 days): 100.00%
- % original TPTA remaining ([1]; time 9.09 days): 99.55%
- % original TPTA remaining ([1]; time 12.07 days): 101.78%
- % original TPTA remaining ([1]; time 14.22 days): 100.47%
- % original TPTA remaining ([1]; time 16.01 days, 23054.4 min): 95.59% and 95.43%
- % original TPTA remaining ([1]; time 20.05 days): 89.05%
- % original TPTA remaining ([1]; time 26.05 days): 95.55%
- % original TPTA remaining ([1]; time 40.17 days): 79.49%
- % original TPTA remaining ([1]; time 47.14 days): 79.62%
- % original TPTA remaining ([1]; time 61.08 days): 74.35%
- % original TPTA remaining ([1]; time 64.99 days): 63.03%
- % original TPTA remaining ([1]; time 71.70 days): 68.55%
- % original TPTA remaining ([1]; time 82.71 days, 119102 min): 43.85%
- % original TPTA remaining ([1]; time 90.71 days, 130622 min): 52.17%
- % original TPTA remaining ([1]; time 96.75 days): 51.55%
- % original TPTA remaining ([1]; time 103.71 days): 52.04%
- % original TPTA remaining ([1]; time 111.71 days): 47.46%
- average % urea unhydrolyzed, 3 days ([2]; UAN (31-0-0)): 97.90%
- % urea unhydrolyzed, 3 days ([2]; UAN (31-0-0)): 101.90% and 93.89%
- average % urea unhydrolyzed, 6 days ([2]; UAN (31-0-0)): 48.48%
- % urea unhydrolyzed, 6 days ([2]; UAN (31-0-0)): 47.75% and 49.21%
- average % urea unhydrolyzed, 3 days ([2]; UAN (36-0-0)): 88% and 87.63%
- % urea unhydrolyzed, 3 days ([2]; UAN (36-0-0)): 91.03% and 84.24%
- average % urea unhydrolyzed, 6 days ([2]; UAN (36-0-0)): 47.82% and 48%
- % urea unhydrolyzed, 6 days ([2]; UAN (36-0-0)): 44.37% and 51.28%
- amount of unhydrolyzed urea in the soil relative to PPDA treatment ([2]; after six days): approximately four times that of the PPDA treatment
